How the values were obtained:
[1] = target: SARS-CoV-2 3CL protease (Severe acute respiratory syndrome coronavirus 2, UniProt P0DTD1); experiment: biochemical; conditions: for IC50: 15 nM enzyme, 60 min at 23° C.; for Ki: fit to the Morrison equation
[2] = tested on: SARS-CoV-2; experiment: Antiviral activity in HeLa-ACE2 cells (viral protein detection); format: cell-based; conditions: Severe acute respiratory syndrome coronavirus 2, compound alone

SMILES	IC50 [1] [nM]	Ki [1] [nM]	EC90 [2] [nM]
COc1cccc2[nH]c(C(=O)N[C@@H](Cc3ccccc3)C(=O)N[C@@H](C[C@@H]3CCNC3=O)C(=O)CO)cc12 [I, N-((S)-1-(((S)-4-hydroxy-3-oxo-1-((S)-2-oxopyrrolidin-3-yl)butan-2-yl)amino)-1-oxo-3-phenylpropan-2-yl)-4-methoxy-1H-indole-2-carboxamide]	375	139	
CCC(CC)COC(=O)[C@H](C)N[P@](=O)(OC[C@H]1O[C@@](C#N)(c2ccc3c(N)ncnn23)[C@H](O)[C@@H]1O)Oc1ccccc1 [remdesivir, reference compound]			168
O=C(N[C@@H](CC1CC1)C(=O)N[C@@H](C[C@@H]1CCNC1=O)C(=O)c1nc2ccccc2s1)c1ccccn1 [H, N-((S)-1-(((S)-1-(benzo[d]thiazol-2-yl)-1-oxo-3-((S)-2-oxopyrrolidin-3-yl)propan-2-yl)amino)-3-cyclopropyl-1-oxopropan-2-yl)picolinamide]	8400	3050	
CC(C)(C)C[C@H](NC(=O)c1cc2ccccc2[nH]1)C(=O)N[C@@H](C[C@@H]1CCNC1=O)C(=O)CO [N-((1S)-1-{[((1S)-3-hydroxy-2-oxo-1-{[(3S)-2-oxopyrrolidin-3-yl]methyl}propyl)amino]carbonyl}-3,3-dimethylbutyl)-1H-indole-2-carboxamide]	24	2.81	
CC(C)(C)C[C@H](NC(=O)[C@H]1CCCO1)C(=O)N[C@@H](C[C@@H]1CCNC1=O)C(=O)COC(=O)c1c(Cl)cccc1Cl [(3S)-3-({4-methyl-N-[(2R)-tetrahydrofuran-2-ylcarbonyl]-L-leucyl}amino)-2-oxo-4-[(3S)-2-oxopyrrolidin-3-yl]butyl 2,6-dichlorobenzoate]	17	2.71	
COc1cccc2[nH]c(C(=O)N[C@@H](CC(C)C)C(=O)N[C@@H](C[C@@H]3CCNC3=O)C(=O)COC(=O)C3CC3)cc12 [(3S)-3-({N-[(4-methoxy-1H-indol-2-yl)carbonyl]-L-leucyl}amino)-2-oxo-4-[(3S)-2-oxopyrrolidin-3-yl]butyl cyclopropanecarboxylate]	128	42.7	
